In ChEMBL document CHEMBL1201862, “PubChem BioAssay data set” (2004):
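Method: 48-hour compound exposure of cells in 96-well plates, five concentrations, linear interpolation of endpoints. At the GI50, growth is halved.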 Active and inactive are the calls of the source. No stated cut-off is given here; in the data, active = GI50 up to about 1.1 µM and inactive = higher.

Key:
Assay in all cases: growth of human tumour cells (NCI), 48 h
DLD-1 = test system: DLD-1
HOP-62 = test system: HOP-62
RPMI-8226 = test system: RPMI-8226
A498 = test system: A498
DMS-273 = test system: DMS-273
NCI-H226 = test system: NCI-H226
HOP-92 = test system: HOP-92
SF-539 = test system: SF-539
SNB-75 = test system: SNB-75
M14 = test system: M14
SR = test system: SR
ACHN = test system: ACHN
XF498 = test system: XF498
MCF7 = test system: MCF7
NCI/ADR-RES = test system: NCI/ADR-RES
BT-549 = test system: BT-549
MDA-N = test system: MDA-N
MDA-MB-435 = test system: MDA-MB-435
Hs-578T = test system: Hs-578T
PC-3 = test system: PC-3

SMILES | GI50 (DLD-1) | GI50 (HOP-62) | GI50 (RPMI-8226) | GI50 (A498) | GI50 (DMS-273) | GI50 (NCI-H226) | GI50 (HOP-92) | GI50 (SF-539) | GI50 (SNB-75) | GI50 (M14) | GI50 (SR) | GI50 (ACHN) | GI50 (XF498) | GI50 (MCF7) | GI50 (NCI/ADR-RES) | GI50 (BT-549) | GI50 (MDA-N) | GI50 (MDA-MB-435) | GI50 (Hs-578T) | GI50 (PC-3)
COc1cccc(NC(=O)C(=O)C(C(=O)c2ccccc2F)C2OC(=O)c3ccccc32)c1 (configuration not stated) | 36.6 µM (inactive) | 42.2 µM (inactive) | 21.6 µM (inactive) | 72.6 µM (inactive) | 29 µM (inactive) | 28 µM (inactive) | > 100 µM (inactive) | 21.3 µM (inactive) | 24.9 µM (inactive) | 48 µM (inactive) | 16.6 µM (inactive) | 45.1 µM (inactive) | – | – | – | – | – | – | – | –
COc1c2ccoc2c(S(=O)(=O)Nc2ccc(Cl)cc2)c2oc(C)cc(=O)c12 | > 100 µM (inactive) | > 89.5 µM (inactive) | > 100 µM (inactive) | 54.6 µM (inactive) | > 100 µM (inactive) | > 81.1 µM (inactive) | 41.9 µM (inactive) | 31.3 µM (inactive) | 27.2 µM (inactive) | – | – | – | > 85.1 µM (inactive) | 51.9 µM (inactive) | > 100 µM (inactive) | – | – | – | – | –
CCN(CC)CCCNC(=O)c1ccccc1Nc1c(Cl)cccc1Cl | 11.6 µM (inactive) | 11.9 µM (inactive) | 5.68 µM (inactive) | – | 17.3 µM (inactive) | 12.4 µM (inactive) | – | 11.4 µM (inactive) | 3.43 µM (inactive) | 2.64 µM (inactive) | 10.8 µM (inactive) | 10.2 µM (inactive) | 2.26 µM (inactive) | – | – | – | – | – | – | –
O=C(O)CC/C(=N\Nc1nsc2ccccc12)c1ccccc1 | – | 97.5 µM (inactive) | 18.5 µM (inactive) | – | 24.7 µM (inactive) | – | 51.3 µM (inactive) | > 100 µM (inactive) | 0.82 µM (active) | 54.5 µM (inactive) | 24.9 µM (inactive) | 70.6 µM (inactive) | – | – | – | – | – | – | – | –
Cc1ccc(NC(=O)CC(=O)n2nc(-c3ccccc3)c(/N=N/c3ccccc3C(=O)O)c2-c2ccccc2)cc1 | 39.3 µM (inactive) | > 100 µM (inactive) | > 100 µM (inactive) | – | > 100 µM (inactive) | > 100 µM (inactive) | > 100 µM (inactive) | > 100 µM (inactive) | – | – | > 100 µM (inactive) | 51.5 µM (inactive) | – | – | – | – | – | – | – | –
O=C(O)CCCCCCC[C@@H]1S[C@H]1CCCCCCO | > 100 µM (inactive) | > 100 µM (inactive) | > 100 µM (inactive) | > 60.7 µM (inactive) | > 100 µM (inactive) | > 100 µM (inactive) | 33.8 µM (inactive) | > 100 µM (inactive) | > 100 µM (inactive) | – | – | – | > 100 µM (inactive) | > 100 µM (inactive) | > 100 µM (inactive) | – | – | – | – | –
CCOC(=O)CCn1[nH]c(=O)c(Cl)c(Cl)c1=O | > 100 µM (inactive) | > 100 µM (inactive) | – | > 100 µM (inactive) | > 100 µM (inactive) | > 100 µM (inactive) | > 100 µM (inactive) | – | > 100 µM (inactive) | > 100 µM (inactive) | – | > 100 µM (inactive) | > 100 µM (inactive) | – | – | – | – | – | – | –
Nc1nc(N)nc(-c2ccccc2NS(=O)(=O)c2ccc([N+](=O)[O-])cc2)n1 | 59.6 µM (inactive) | > 100 µM (inactive) | 45.9 µM (inactive) | > 100 µM (inactive) | 55.8 µM (inactive) | 61.2 µM (inactive) | > 100 µM (inactive) | > 100 µM (inactive) | > 52.2 µM (inactive) | – | – | – | 18.2 µM (inactive) | > 81.5 µM (inactive) | 17.3 µM (inactive) | – | – | – | – | –
O=C1CCC(c2nc3cc(Cl)ccc3o2)C(=O)N1 (configuration not stated) | > 100 µM (inactive) | > 100 µM (inactive) | – | > 100 µM (inactive) | > 100 µM (inactive) | > 100 µM (inactive) | > 100 µM (inactive) | > 100 µM (inactive) | 64.7 µM (inactive) | > 100 µM (inactive) | > 100 µM (inactive) | > 100 µM (inactive) | – | – | – | – | – | – | – | –
CN(C)CCNC(=O)c1cccc2[nH]c(-c3ccncc3)nc12 | – | 18.7 µM (inactive) | 3 µM (inactive) | 4.05 µM (inactive) | – | 15.2 µM (inactive) | 6.82 µM (inactive) | 2.65 µM (inactive) | 7.33 µM (inactive) | 1.82 µM (inactive) | 3.38 µM (inactive) | 6.53 µM (inactive) | – | 3.44 µM (inactive) | 13.2 µM (inactive) | 11.4 µM (inactive) | 1.74 µM (inactive) | 1.84 µM (inactive) | 4.59 µM (inactive) | 3.83 µM (inactive)
CC(C)CC/N=c1/cc2n(-c3ccc(Cl)cc3)c3ccccc3nc-2cc1Nc1ccc(Cl)cc1 | 1.97 µM (inactive) | 8.71 µM (inactive) | 2.22 µM (inactive) | 15 µM (inactive) | 14.6 µM (inactive) | 6.25 µM (inactive) | 4.92 µM (inactive) | 16 µM (inactive) | 9.75 µM (inactive) | – | – | – | 6.64 µM (inactive) | 5.36 µM (inactive) | 10.1 µM (inactive) | – | – | – | – | –
CCOC(=O)C(C)OC(=O)c1ccc(C)cc1 (configuration not stated) | > 100 µM (inactive) | – | – | > 100 µM (inactive) | > 100 µM (inactive) | – | > 100 µM (inactive) | > 100 µM (inactive) | > 100 µM (inactive) | > 100 µM (inactive) | > 100 µM (inactive) | > 100 µM (inactive) | 84.3 µM (inactive) | – | – | – | – | – | – | –
